Reference: US7902226B2, “Dehalogeno-compounds” (Daiichi Pharmaceutical Co., Ltd., priority 2000, dated 2011)
In brackets after ≈: the same amount, converted by molar mass.

Tests used:
K. pneumoniae, Type 1 = assay: Antibacterial activity (MIC), standard method of the Japan Society of Chemotherapy; type: cell-based; settings: Klebsiella pneumoniae, TYPE1
Procedure: (§1) Antibacterial activities of the compounds of this invention were measured in accordance to the standard method designated by the Japan Society of Chemotherapy, with the results shown as MIC values (microgram/ml) units in the following table. For comparison with the MIC values of the compounds of this invention, MIC values of levofloxacin (LVFX), ciprofloxacin (CPFX) and 7-[3-(R)-(1-aminocyclopropyl)pyrrolidin-1-yl]-6-fluoro-1-[2-(S)-fluoro-1-(R)-cyclopropyl]-8-methyl-1,4-dihydro-4-oxoquinoline-3-carboxylic acid (Reference drug 1), which is described in PCT/JP96/00208, are also shown in the table.

Ser. marcescens, 10100 = assay: as above; type: cell-based; settings: Serratia marcescens
Procedure: as §1

E. coli, NIHJ = assay: as above; type: cell-based; settings: Escherichia coli
Procedure: as §1

Str. pyogenes, G-36 = assay: as above; type: cell-based; settings: Streptococcus pyogenes, G36
Procedure: as §1

Ps. aeruginosa, 32121 = assay: as above; type: cell-based; settings: Pseudomonas aeruginosa
Procedure: as §1

Pr. vulgalis, 08601 = assay: as above; type: cell-based
Procedure: as §1

S. aureus, 209P = assay: as above; type: cell-based; settings: Staphylococcus aureus
Procedure: as §1

S. flexneri, 2A 5503 = assay: as above; type: cell-based; settings: Shigella flexneri, 2A5503
Procedure: as §1

[1] = test system: Str. faecalis, ATCC 19433; assay: as above; type: cell-based; settings: Enterococcus faecalis, ATCC19433
Procedure: as §1

S. epidermidis, 56500 = assay: as above; type: cell-based; settings: Staphylococcus epidermidis
Procedure: as §1

S. aureus, 870307 = assay: as above; type: cell-based; settings: Staphylococcus aureus
Procedure: as §1

[2] = test system: Ps. maltophilia, IID-1275; assay: as above; type: cell-based; settings: Stenotrophomonas maltophilia, IID1275
Procedure: as §1

Str. pneumoniae J24 = assay: as above; type: cell-based; settings: Streptococcus pneumoniae
Procedure: as §1

Ps. aeruginosa, 32104 = assay: as above; type: cell-based; settings: Pseudomonas aeruginosa
Procedure: as §1

SMILES | MIC (K. pneumoniae, Type 1) [µg/mL] | MIC (Ser. marcescens, 10100) [µg/mL] | MIC (E. coli, NIHJ) [µg/mL] | MIC (Str. pyogenes, G-36) [µg/mL] | MIC (Ps. aeruginosa, 32121) [µg/mL] | MIC (Pr. vulgalis, 08601) [µg/mL] | MIC (S. aureus, 209P) [µg/mL] | MIC (S. flexneri, 2A 5503) [µg/mL] | MIC [1] [µg/mL] | MIC (S. epidermidis, 56500) [µg/mL] | MIC (S. aureus, 870307) [µg/mL] | MIC [2] [µg/mL] | MIC (Str. pneumoniae J24) [µg/mL] | MIC (Ps. aeruginosa, 32104) [µg/mL] | melting point [°C]
CNC1([C@@H]2CCN(c3ccc4c(=O)c(C(=O)O)cn(C5CC5)c4c3C)C2)CC1 [Example 15, 1-(cyclopropyl)-8-methyl-7-[3-(R)-[1-(methylamino)cyclopropyl]pyrrolidin-1-yl]-1,4-dihydro-4-oxoquinoline-3-carboxylic acid] | 0.025 (≈ 0.0655 µM) | 0.1 (≈ 0.262 µM) | ≤ 0.003 | ≤ 0.003 | 0.05 (≈ 0.131 µM) | 0.012 (≈ 0.0315 µM) | ≤ 0.003 | 0.006 (≈ 0.0157 µM) | 0.025 (≈ 0.0655 µM) | 0.006 (≈ 0.0157 µM) | 0.025 (≈ 0.0655 µM) | 0.2 (≈ 0.524 µM) | ≤ 0.003 | 0.1 (≈ 0.262 µM) | 190 to 192
CNC1([C@@H]2CCN(c3ccc4c(=O)c(C(=O)O)cn([C@@H]5C[C@@H]5F)c4c3C)C2)CC1 [Example 10, 1-[2-(S)-fluoro-1-(R)-cyclopropyl]-8-methyl-7-[3-(R)-[1-(methylamino)cyclopropyl]pyrrolidin-1-yl]-1,4-dihydro-4-oxoquinoline-3-carboxylic acid] | 0.025 (≈ 0.0626 µM) | 0.05 (≈ 0.125 µM) | ≤ 0.003 | ≤ 0.003 | 0.025 (≈ 0.0626 µM) | 0.006 (≈ 0.015 µM) | ≤ 0.003 | 0.006 (≈ 0.015 µM) | 0.012 (≈ 0.03 µM) | 0.006 (≈ 0.015 µM) | 0.025 (≈ 0.0626 µM) | 0.1 (≈ 0.25 µM) | ≤ 0.003 | 0.1 (≈ 0.25 µM) | 223 to 224
CNC1([C@@H]2CCN(c3ccc4c(=O)c(C(=O)O)cn([C@@H]5C[C@@H]5F)c4c3OC)C2)CC1 [Example 11, 1-[2-(S)-fluoro-1-(R)-cyclopropyl]-8-methoxy-7-[3-(R)-[1-(methylamino)cyclopropyl]pyrrolidin-1-yl]-1,4-dihydro-4-oxoquinoline-3-carboxylic acid] | 0.1 (≈ 0.241 µM) | 0.2 (≈ 0.481 µM) | 0.006 (≈ 0.0144 µM) | 0.012 (≈ 0.0289 µM) | 0.1 (≈ 0.241 µM) | 0.012 (≈ 0.0289 µM) | ≤ 0.003 | 0.012 (≈ 0.0289 µM) | 0.05 (≈ 0.12 µM) | 0.012 (≈ 0.0289 µM) | 0.05 (≈ 0.12 µM) | 0.2 (≈ 0.481 µM) | 0.006 (≈ 0.0144 µM) | 0.2 (≈ 0.481 µM) | 213 to 215
Cc1c(N2CC[C@@H](C3(N)CC3)C2)ccc2c(=O)c(C(=O)O)cn(C3CC3)c12 [Example 3, 7-[3-(R)-(1-aminocyclopropyl)pyrrolidin-1-yl]-1-cyclopropyl-1,4-dihydro-8-methyl-4-oxoquinoline-3-carboxylic acid] | 0.012 (≈ 0.0327 µM) | 0.025 (≈ 0.068 µM) | ≤ 0.003 | 0.003 (≈ 0.00816 µM) | 0.025 (≈ 0.068 µM) | ≤ 0.003 | ≤ 0.003 | ≤ 0.003 | 0.012 (≈ 0.0327 µM) | 0.003 (≈ 0.00816 µM) | 0.025 (≈ 0.068 µM) | 0.05 (≈ 0.136 µM) | ≤ 0.003 | 0.05 (≈ 0.136 µM) | 230 to 233
